Laboratory results reported in ChEMBL document CHEMBL4732153, “Phenyl 4-(2-oxopyrrolidin-1-yl)benzenesulfonates and phenyl 4-(2-oxopyrrolidin-1-yl)benzenesulfonamides as new antimicrotubule agents targeting the colchicine-binding site” (Eur J Med Chem, 2021).
The source made the active and inactive calls. The calls are words filed in the database; no cut-off is given here.

Key:
MCF7 = experiment: Antiproliferative activity against human MCF7 cells assessed as reduction in cell viability measured after 48 hrs by sulforhodamine B assay; assay type: functional, cell-based; details: MCF7, 48 h
M21 [1] = experiment: Cell cycle arrest in human M21 cells assessed as accumulation at G0/G1 phase at 2 to 5 times IC50 measured after 24 hrs by DAPI staining based flow cytometry (reference value: 65.5%); assay type: functional
M21 [2] = experiment: Antiproliferative activity against human M21 cells assessed as reduction in cell viability measured after 48 hrs by sulforhodamine B assay; assay type: functional, cell-based; details: M21, 48 h
M21 [3] = experiment: Cell cycle arrest in human M21 cells assessed as accumulation at SubG1 phase at 2 to 5 times IC50 measured after 24 hrs by DAPI staining based flow cytometry (reference value: 5%); assay type: functional
HT-1080 = experiment: Antiproliferative activity against human HT-1080 cells assessed as reduction in cell viability measured after 48 hrs by sulforhodamine B assay; assay type: functional, cell-based; details: HT-1080, 48 h
HT-29 = experiment: Antiproliferative activity against human HT-29 cells assessed as reduction in cell viability measured after 48 hrs by sulforhodamine B assay; assay type: functional, cell-based; details: HT-29, 48 h
M21 [4] = experiment: Cell cycle arrest in human M21 cells assessed as accumulation at G2/M phase at 2 to 5 times IC50 measured after 24 hrs by DAPI staining based flow cytometry (reference value: 13.4%); assay type: functional
M21 [5] = experiment: Cell cycle arrest in human M21 cells assessed as accumulation at S phase at 2 to 5 times IC50 measured after 24 hrs by DAPI staining based flow cytometry (reference value: 16.1%); assay type: functional
Tubulin (Homo sapiens) [6] = biological target: T1, Tubulin (Homo sapiens) (UniProt P68371+Q9H4B7+P0DPH7+P68366+Q13509+Q71U36+P04350+Q3ZCM7+P07437+P68363+Q9BQE3+Q6PEY2+Q13885+Q9BVA1+Q9BUF5); experiment: Disruption of microtubule polymerization in human M21 cells assessed as induction of mitotic abnormalities at 5 times IC50 measured after 24 hrs by DAPI staining based immunofluorescence microscopic analysis; assay type: cell-based
Tubulin (Homo sapiens) [7] = biological target: T1, Tubulin (Homo sapiens); experiment: Disruption of microtubule polymerization in human M21 cells at 5 times IC50 measured after 24 hrs by DAPI staining based immunofluorescence microscopic analysis; assay type: cell-based
[8] = biological target: Tubulin beta (Homo sapiens) (UniProt P68371+Q9H4B7+Q13509+P04350+Q3ZCM7+P07437+Q13885+Q9BVA1+Q9BUF5+A6NNZ2); experiment: Inhibition of EBI binding to colchicine-binding site of beta-tubulin in human M21 cells at 100 to 1000 times IC50 preincubated for 2 hrs followed by EBI addition and measured after 1.5 hrs by Western blot analysis; assay type: cell-based; details: time 3.5 hrs
Sus scrofa = species on record: Sus scrofa; experiment: Inhibition of porcine brain tubulin polymerization at 3 uM measured after 60 mins by fluorescence assay
[9] = Solubility of compound in DMSO at 3 uM; assay type: physicochemical
[10] = Toxicity in chick embryo assessed as death at 10 ug, iv incubated for 7 days relative to control; assay type: organism-based; details: in vivo, at 10 µg, time 7 day, read-out: Activity

SMILES | IC50 (MCF7) | Activity (M21 [1]) | IC50 (M21 [2]) | Activity (M21 [3]) | IC50 (HT-1080) | IC50 (HT-29) | Activity (M21 [4]) | Activity (M21 [5]) | Activity (Tubulin (Homo sapiens) [6]) | Activity (Tubulin (Homo sapiens) [7]) | Inhibition of EBI binding (active/inactive) [8] | inhibition (Sus scrofa) | solubility [9] | mortality at 168 h [10]
COc1cc(NS(=O)(=O)c2ccc(N3CCCC3=O)cc2)cc(OC)c1 | 690 nM | 43.1% | 390 nM | 4.9% | 990 nM | 1300 nM | 42.2% | 9.8% | – | – | – | – | – | –
O=C1CCCN1c1ccc(S(=O)(=O)Oc2cccc(Cl)c2)cc1 | 140 nM | – | 110 nM | – | 180 nM | 120 nM | – | – | – | – | – | – | – | –
COc1ccc(OS(=O)(=O)c2ccc(N3CCCC3=O)cc2)cc1OC | 290 nM | – | 650 nM | – | 590 nM | 690 nM | – | – | – | – | – | – | – | –
COc1ccc(NS(=O)(=O)c2ccc(N3CCCC3=O)cc2)cc1OC | 2600 nM | – | 5100 nM | – | 2250 nM | 890 nM | – | – | – | – | – | – | – | –
COc1ccc(OS(=O)(=O)c2ccc(N3CCCC3=O)cc2)cc1 | 4600 nM | – | 7500 nM | – | 8500 nM | 4800 nM | – | – | – | – | – | – | – | –
COc1cccc(NS(=O)(=O)c2ccc(N3CCCC3=O)cc2)c1 | 1100 nM | – | 940 nM | – | 1300 nM | 860 nM | – | – | – | – | – | – | – | –
COc1cc(OS(=O)(=O)c2ccc(N3CCCC3=O)cc2)cc(OC)c1OC | 17 nM | 8.3% | 13 nM | 3.8% | 11 nM | 16 nM | 81.8% | 6.1% | Active | Active | Active | – | – | –
O=C1CCCN1c1ccc(S(=O)(=O)Oc2ccc(-c3ccccc3)cc2)cc1 | 1700 nM | – | 2300 nM | – | 2600 nM | 2900 nM | – | – | – | – | – | – | – | –
COc1ccccc1OS(=O)(=O)c1ccc(N2CCCC2=O)cc1 | 890 nM | – | 1300 nM | – | 1300 nM | 1200 nM | – | – | – | – | – | – | – | –
O=C1CCCN1c1ccc(S(=O)(=O)Nc2cccc(I)c2)cc1 | 600 nM | 11.2% | 330 nM | 6.8% | 860 nM | 390 nM | 74.2% | 7.8% | Active | Active | Active | – | – | –
O=C1CCCN1c1ccc(S(=O)(=O)Nc2cccc(Cl)c2)cc1 | 560 nM | 13.7% | 770 nM | 10.6% | 680 nM | 680 nM | 67.8% | 7.9% | – | – | – | – | – | –
COc1ccccc1NS(=O)(=O)c1ccc(N2CCCC2=O)cc1 | 1800 nM | – | 3000 nM | – | 3200 nM | 2400 nM | – | – | – | – | – | – | – | –
O=C1CCCN1c1ccc(S(=O)(=O)Oc2cccc(I)c2)cc1 | 22 nM | 7.8% | 88 nM | 4.3% | 40 nM | 59 nM | 81.4% | 6.5% | – | – | – | – | – | –
O=C1CCCN1c1ccc(S(=O)(=O)Nc2cc(Br)cc(Br)c2)cc1 | 520 nM | 8.3% | 280 nM | 4.2% | 590 nM | 390 nM | 81.2% | 6.3% | Active | Active | Active | Active | Soluble | 25%
O=C1CCCN1c1ccc(S(=O)(=O)Nc2cccc(F)c2)cc1 | 680 nM | – | 2300 nM | – | 840 nM | 5400 nM | – | – | – | – | – | – | – | –
O=C1CCCN1c1ccc(S(=O)(=O)Nc2ccccc2-c2ccccc2)cc1 | 960 nM | 59.8% | 430 nM | 3% | 1200 nM | 730 nM | 25.1% | 12.1% | – | – | – | – | – | –
O=C1CCCN1c1ccc(S(=O)(=O)Nc2ccccc2)cc1 | 2800 nM | – | 5600 nM | – | 4900 nM | 3400 nM | – | – | – | – | – | – | – | –
CC(C)c1ccccc1OS(=O)(=O)c1ccc(N2CCCC2=O)cc1 | 500 nM | – | 910 nM | – | 840 nM | 780 nM | – | – | – | – | – | – | – | –
O=C1CCCN1c1ccc(S(=O)(=O)Oc2cc(Br)cc(Br)c2)cc1 | 11 nM | 9.4% | 8.7 nM | 3.9% | 11 nM | 10 nM | 79.7% | 7% | Active | Active | Active | Active | Soluble | 18%
O=C1CCCN1c1ccc(S(=O)(=O)Oc2cccc(Br)c2)cc1 | 60 nM | 24% | 40 nM | 13.3% | 80 nM | 60 nM | 53.1% | 9.6% | – | – | – | – | – | –
O=C1CCCN1c1ccc(S(=O)(=O)Nc2ccc(-c3ccccc3)cc2)cc1 | 7000 nM | – | 4700 nM | – | 8800 nM | 5400 nM | – | – | – | – | – | – | – | –
CC(C)c1ccccc1NS(=O)(=O)c1ccc(N2CCCC2=O)cc1 | 16000 nM | – | 9900 nM | – | 21000 nM | 12000 nM | – | – | – | – | – | – | – | –
O=C1CCCN1c1ccc(S(=O)(=O)Oc2ccccc2-c2ccccc2)cc1 | 210 nM | – | 190 nM | – | 370 nM | 350 nM | – | – | – | – | – | – | – | –
O=C1CCCN1c1ccc(S(=O)(=O)Oc2ccccc2)cc1 | 650 nM | – | 460 nM | – | 920 nM | 480 nM | – | – | – | – | – | – | – | –
O=C1CCCN1c1ccc(S(=O)(=O)Oc2cccc(F)c2)cc1 | 370 nM | – | 300 nM | – | 810 nM | 310 nM | – | – | – | – | – | – | – | –
COc1ccc(NS(=O)(=O)c2ccc(N3CCCC3=O)cc2)cc1 | 4600 nM | – | 7500 nM | – | 8500 nM | 4800 nM | – | – | – | – | – | – | – | –
O=C1CCCN1c1ccc(S(=O)(=O)Nc2cccc(Br)c2)cc1 | 830 nM | – | 950 nM | – | 1300 nM | 590 nM | – | – | – | – | – | – | – | –
COc1cccc(OS(=O)(=O)c2ccc(N3CCCC3=O)cc2)c1 | 100 nM | – | 120 nM | – | 190 nM | 120 nM | – | – | – | – | – | – | – | –
